Assay results as given in US12582607B2, “Implantable medical devices for extended release of therapeutic agents” (Nano Precision Medical, Inc., priority 2014, dated 2026).

What was measured:
[1] = Forced degradation study of exenatide with and without PLGA in titanium reservoirs with nanotube membrane; purity of released exenatide by HPLC; type: physicochemical; settings: 37 C, devices in PBS pH 7.4 with full access to air; for Exenatide purity over time (% purity), 7 days: day 7; for Exenatide purity over time (% purity), 14 days: day 14; for Exenatide purity over time (% purity), 28 days: day 28; for Exenatide purity over time (% purity), 35 days: day 35; for Exenatide purity over time (% purity), 42 days: day 42; for Exenatide purity over time (% purity), 56 days: day 56
Procedure: To avoid confounding factors, no other stabilizers were used in the study.
The devices were incubated in phosphate buffered saline (pH 7.4) under full access to air (oxygen).

[2] = In vitro release of stabilizers from implantable devices and disassembly of the devices (Contemplated Examples); type: physicochemical; settings: for release rate profile of stabilizer out of device through nanoporous membrane: in vitro testing, reverse phase HPLC; for duration for which stabilizer level (pH or concentration) is maintained in device: in vitro; for duration for which stabilizer level (pH or concentration) is maintained in device / pH maintained inside device: 37° C.; for pH maintained inside device: disassembly of devices at 2 months, 26 mM bis-tris buffer, 154 mM NaCl
Text: In the examples below the devices that are used include titanium capsules of approximately 25 mm length and 2.25 mm diameter. A titanium substrate with a titanium oxide nanoporous membrane is welded to one end of the device. […] A silicone septum is located at the other end of the device. Extended-release configurations of stabilizers, prepared as described further below, are incorporated into the reservoirs before final attachment of the membrane and septum on the device. A formulation solvent is filled into the device as per methods in PCT/US2021/019559. Briefly, the formulation solvent is loaded into a filler apparatus with a hollow needle to pierce the septum. A vacuum is applied to the membrane of the device to reduce the pressure inside the reservoir, and the formulation is injected through the septum into the reservoir through the needle. The durability of the presence of stabilizers inside devices of the disclosure may be tested by measuring release of the stabilizers from the devices in vitro. In vitro testing is performed by submerging the devices in 3 ml of a 26 mM bis-tris buffer, 154 mM NaCl on a shaker plate at 37° C. and measuring the amounts of stabilizer released at regular intervals by reverse phase HPLC.

[3] = cited from earlier work

Compound: Exenatide only (Irradiated): E-beam irradiated (25k Gray) exenatide solution 200 mg/ml, no PLGA
- Exenatide purity over time (% purity), 7 days [1]: 96 % purity
- Exenatide purity over time (% purity), 14 days [1]: 91 % purity
- Exenatide purity over time (% purity), 28 days [1]: 82 % purity
- Exenatide purity over time (% purity), 35 days [1]: 75 % purity
- Exenatide purity over time (% purity), 42 days [1]: 66 % purity
- Exenatide purity over time (% purity), 56 days [1]: 51 % purity

Compound: Oc1ccc(O)cc1 [hydroquinone, Hydroquinone]
- stabilizer concentration maintained in device ([2]; disassembly of devices at 4 months): at least 0.05%
- release rate profile of stabilizer out of device through nanoporous membrane [2]: approximately constant rate
- duration for which stabilizer level (pH or concentration) is maintained in device [2]: at least 4 months

Compound: CCCOC(=O)c1cc(O)c(O)c(O)c1 [propyl gallate]
- stabilizer concentration maintained in device ([2]; disassembly of devices at 3 months): at least 0.05%
- release rate profile of stabilizer out of device through nanoporous membrane [2]: declining with approximately the square root of time
- duration for which stabilizer level (pH or concentration) is maintained in device [2]: at least 3 months

Compound: O=C(O)c1ccccc1 [benzoic acid]
- pH maintained inside device [2]: below 6
- release rate profile of stabilizer out of device through nanoporous membrane [2]: declining with approximately the square root of time
- duration for which stabilizer level (pH or concentration) is maintained in device [2]: at least 2 months

Compound: Exenatide only: 20% (w/v) exenatide solution in Water For Injection with 0.04% NaN3, no PLGA, non-irradiated
- Exenatide purity over time (% purity), 7 days [1]: 99 % purity
- Exenatide purity over time (% purity), 14 days [1]: 89 % purity
- Exenatide purity over time (% purity), 28 days [1]: 87 % purity
- Exenatide purity over time (% purity), 35 days [1]: 82 % purity
- Exenatide purity over time (% purity), 42 days [1]: 72 % purity
- Exenatide purity over time (% purity), 56 days [1]: 62 % purity

Compound: [H]/N=C(\N/C(=N/[H])NCCCCCCNC(=N)NC(=N)Nc1ccc(Cl)cc1)Nc1ccc(Cl)cc1 [chlorhexidine, Chlorhexidine]
- pH maintained inside device [2]: above 8
- release rate profile of stabilizer out of device through nanoporous membrane [2]: declining with approximately the square root of time
- duration for which stabilizer level (pH or concentration) is maintained in device [2]: at least 2 months

Compound: Cc1cc(C(C)(C)C)c(O)c(C(C)(C)C)c1 [butylated hydroxytoluene]
- reported solubility in water [3]: about 1 ppm
